These results are taken from paper PMC3605901 (Bioorganic & medicinal chemistry, 2013).

≈ marks a conversion by molar mass, not a printed value. Entries after “also recorded” stand apart in the source; their conditions may differ. Like-named read-outs stand apart in the source and are kept apart here.

Series [1] concerns GAS strain UMAA2616. As to the kind of experiment: microbe, parasite or virus in culture. To be noted: Streptococcus pyogenes, UMAA2616, read-out: 50 μM Growth T/C. The format is cell-based, Streptococcus pyogenes (Group A Streptococcus).
A short description of series [2]: Microsomal stability assay. To be noted: for half-life at 1 μM: mouse, microsomes; for MLM t1/2: half-life of parent compound during incubation with mouse liver microsomes, 1 μM, 0.5 mg/mL, NADPH. On the technique in general: Microsomes from liver hold many membrane-bound enzymes, among them those of drug oxidation.
Series [3] concerns S. aureus biofilm formation. The series can be described thus: Biofilm formation, plate-based OD assay. To be noted: reported in greater detail in ref 28. The format is cell-based, Staphylococcus aureus.
The target in series [4] is streptokinase (SK) expression in GAS strain UMAA2616. As to the kind of experiment: microbe, parasite or virus in culture. The format is cell-based, Streptococcus pyogenes (Group A Streptococcus). The note with it: for IC50: read-out: IC50 (SK activity).
The test system of series [5] is HeLa cells. The series can be described thus: Mammalian cytotoxicity assay. The format is cell-based. The note with it: up to 100 μM, the highest concentration tested; 24 hours.
Series [6] in a line: Aqueous. To be noted: for Aq. Sol.: kinetic solubility in aqueous Todd Hewitt (THY) bacterial media, 37°C.
The subject of series [7] is GAS infection. The note with it: transgenic mouse model of GAS infection; cited from earlier work.
[8] abbreviates: full dose-response titration, approximate IC50.

`C=CCn1c(NCC)nc2c(c1=O)C(C)(C)Cc1ccccc1-2` [13b, 3-allyl-2-(ethylamino)-5,5-dimethyl-5,6-dihydrobenzo[h]quinazolin-4(3H)-one]: the activity at 50 µM in series [1] was 6 ± 3%.

`C=CCn1c(SCC(F)(F)F)nc2c(c1=O)C(C)(C)Cc1ccc(OC)cc1-2` [12l, 3-allyl-9-methoxy-5,5-dimethyl-2-((2,2,2-trifluoroethyl)thio)-5,6-dihydrobenzo[h]quinazolin-4(3H)-one] had a half-life at 1 μM in series [2] of 4.8 min. Further, the activity at 50 µM in series [1] was 86 ± 7%.

For “3-allyl-2-(ethylthio)-8-methoxy-5,5-dimethyl-5,6-dihydrobenzo[h]quinazolin-4(3H)-one [12c]”, in series [2], the “MLM t1/2” value worked out at 0.8 min. Besides, the “S. aureus biofilm inhibition” value in series [3] is on record as “potent S. aureus biofilm inhibitors”. Also, the IC50 in series [4] (setting [8]) amounted to 3.1 ± 0.7 µM. The “Inhibition of HeLa cell growth” value in series [5] is reported as no more than 35%. Moreover, the “Aq. Sol.” value in series [6] worked out at 14.5 ± 3.5 µM.

As for `C=CCn1c(SCc2ccc(NC(C)=O)cc2)nc2c(c1=O)C1(CCCCC1)Cc1ccccc1-2` [6c, N-(4-(((3-allyl-4-oxo-4,6-dihydro-3H-spiro[benzo[h]quinazoline-5,1′-cyclohexan]-2-yl)thio)methyl)phenyl)acetamide], the activity at 50 µM in series [1] turned out to be 96 ± 14%.

Regarding `C=CCn1c(OCC)nc2c(c1=O)C1(CCCCC1)Cc1ccccc1-2` [7a, 3-allyl-2-ethoxy-3H-spiro[benzo[h]quinazoline-5,1′-cyclohexan]-4(6H)-one], the activity at 50 µM in series [1] came out at 102 ± 9%.

For `C=CCn1c(SCc2ccccc2)nc2c(c1=O)C1(CCCCC1)Cc1ccccc1-2` [6b, 3-allyl-2-(benzylthio)-3H-spiro[benzo[h]quinazoline-5,1′-cyclohexan]-4(6H)-one], in series [4] (Streptococcus pyogenes), the half-inhibitory concentration (IC50) was greater than 50 µM. Moreover, the activity at 50 µM in series [1] came out at 96 ± 6%.

Take `C=CCn1c(SCCOC)nc2c(c1=O)C1(CCCCC1)Cc1ccccc1-2` [6d, 3-allyl-2-((2-methoxyethyl)thio)-3H-spiro[benzo[h]quinazoline-5,1′-cyclohexan]-4(6H)-one]: the activity at 50 µM in series [1] came out at 99 ± 10%.

`C=CCn1c(SCCOC)nc2c(c1=O)C(C)(C)Cc1ccccc1-2` [12h, 3-allyl-2-((2-methoxyethyl)thio)-5,5-dimethyl-5,6-dihydrobenzo[h]quinazolin-4(3H)-one]: the activity at 50 µM in series [1] is 86 ± 10%. Moreover, the “Inhibition of HeLa cell growth” value in series [5] was no more than 35%.

In the case of `C=CCn1c(SCC(N)=O)nc2c(c1=O)C(C)(C)Cc1ccccc1-2` [12d, 2-((3-allyl-5,5-dimethyl-4-oxo-3,4,5,6-tetrahydrobenzo[h]quinazolin-2-yl)thio)acetamide], the activity at 50 µM in series [1] was determined as 100 ± 2%.

For the molecule “2-((2-Methoxyethyl)thio)-4-(4-methoxyphenethoxy)-5,5-dimethyl-5,6-dihydrobenzo[h]quinazoline [20a]”, the “MLM t1/2” value in series [2] was 45.1 min. Besides, the IC50 in series [4] (setting [8]) was found to be 5.5 ± 0.7 µM. In series [5], the “Inhibition of HeLa cell growth” value is reported as no more than 35%.

With `C=CCn1c(SCC#N)nc2c(c1=O)C(C)(C)Cc1ccccc1-2` [12g, 2-((3-allyl-5,5-dimethyl-4-oxo-3,4,5,6-tetrahydrobenzo[h]quinazolin-2-yl)thio)acetonitrile], the activity at 50 µM in series [1] came to 100 ± 3%. Besides, the concentration in solution in series [6] (solubility at 5 min) was 3 ± 1 µM (≈ 1.01 µg/mL).

Take `COCCSc1nc2c(c(=O)n1CCc1ccc(OC)cc1)C(C)(C)Cc1ccccc1-2` [19a, 2-((2-Methoxyethyl)thio)-3-(4-methoxyphenethyl)-5,5-dimethyl-5,6-dihydrobenzo[h]quin-azolin-4(3H)-one]: the “Inhibition of HeLa cell growth” value in series [5] is no more than 35%.

As to `C=CCn1c(SCc2ccccn2)nc2c(c1=O)C(C)(C)Cc1ccccc1-2` [12e, 3-allyl-5,5-dimethyl-2-((pyridin-2-ylmethyl)thio)-5,6-dihydrobenzo[h]quinazolin-4(3H)-one], the activity at 50 µM in series [1] came out at 105 ± 2%.

Take `C=CCn1c(SCC(=O)OCC)nc2c(c1=O)C(C)(C)Cc1ccccc1-2` [compound 31]: the activity at 50 µM in series [1] is 101 ± 2%.

With `C=CCn1c(SCCO)nc2c(c1=O)C(C)(C)Cc1ccccc1-2` [12f, 3-allyl-2-((2-hydroxyethyl)thio)-5,5-dimethyl-5,6-dihydrobenzo[h]quinazolin-4(3H)-one], the activity at 50 µM in series [1] turned out to be 6 ± 3%.

Turning to `C=CCn1c(SCc2ccccc2)nc2c(c1=O)C(C)(C)Cc1ccccc1-2` [compound 29], the activity at 50 µM in series [1] stood at 103 ± 3%. Also, the “Inhibition of HeLa cell growth” value in series [5] was no more than 35%.

In the case of `C=CCn1c(SCCN(C)C)nc2c(c1=O)C1(CCCCC1)Cc1ccccc1-2` [6e, 3-allyl-2-((2-(dimethylamino)ethyl)thio)-3H-spiro[benzo[h]quinazoline-5,1′-cyclohexan]-4(6H)-one], in series [1], the activity at 50 µM is 88 ± 20%.

Consider `C=CCn1c(SCCCC)nc2c(c1=O)C1(CCCCC1)Cc1ccccc1-2` [compound 1, 3-allyl-2-(butylthio)-3H-spiro[benzo[h]quinazoline-5,1′-cyclohexan]-4(6H)-one], for which the “Efficacy in mouse models of GAS infection” value in series [7] is “displayed efficacy; also recorded: significant protective effect”. Besides, in series [2] (1 vs 6b, O-alkylated vs N-alkylated counterparts), the “Fold higher stability to oxidation in MLM (comparison of t1/2)” value is listed as “more than 60 fold”. Further, in series [4], the “% of plasmin activity at 50 μM” value is given as 48 ± 28%. Further, in series [4] (Streptococcus pyogenes), the IC50 was greater than 50 µM. In series [1], the activity at 50 µM was determined as 95 ± 8%. In series [5], the “Inhibition of HeLa cell growth” value was no more than 35%. In series [6], this molecule came in with a solubility at 5 min of 2 ± 1 µM (≈ 0.789 µg/mL).

Regarding `C=CCn1c(SCc2ccc(OC)cc2)nc2c(c1=O)C1(CCCCC1)Cc1ccccc1-2` [6a, 3-allyl-2-((4-methoxybenzyl)thio)-3H-spiro[benzo[h]quinazoline-5,1′-cyclohexan]-4(6H)-one], the activity at 50 µM in series [1] was 105 ± 6%.

For the molecule “2-(ethylthio)-9-methoxy-5,5-dimethyl-3-(2,2,2-trifluoroethyl)-5,6-dihydrobenzo[h]quinazolin-4(3H)-one [19b]”, the “MLM t1/2” value in series [2] was found to be 3.0 min.

For the molecule “3-allyl-2-(ethylthio)-9-methoxy-5,5-dimethyl-2,3,5,6-tetrahydrobenzo[h]quinazolin-4(1H)-one [12a]”, the “MLM t1/2” value in series [2] is on record as 2.3 min. For the same molecule, in series [4], the “Fold improvement in potency (IC50) over 1” value is “greater than 35 fold” and the “Reduction in streptokinase activity at 5 μM” value was 90%. Besides, the IC50 in series [4] (setting [8]) turned out to be 1.3 ± 0.6 µM. For the same molecule, the “Inhibition of HeLa cell growth” value in series [5] is no more than 35%. Moreover, in series [6], the “Aq. Sol.” value turned out to be 9 ± 2 µM.

`CCn1c(SCCOC)nc2c(c1=O)C(C)(C)Cc1ccccc1-2` [12i, 3-ethyl-2-((2-methoxyethyl)thio)-5,5-dimethyl-5,6-dihydrobenzo[h]quinazolin-4(3H)-one]: the activity at 50 µM in series [1] was 39 ± 15%.

`C=CCn1c(NCC)nc2c(c1=O)C1(CCCCC1)Cc1ccccc1-2` [7b, 3-allyl-2-(ethylamino)-3H-spiro[benzo[h]quinazoline-5,1′-cyclohexan]-4(6H)-one]: the activity at 50 µM in series [1] was found to be 32 ± 18%.

On to `CCSc1nc2c(c(=O)n1C)C(C)(C)Cc1ccc(OC)cc1-2` [12m, 2-(ethylthio)-9-methoxy-3,5,5-trimethyl-5,6-dihydrobenzo[h]quinazolin-4(3H)-one], for which, in series [2], the half-life at 1 μM is 1.7 min. Besides, in series [1], the activity at 50 µM is 83 ± 15%.

Regarding `CCn1c(SCc2ccccc2)nc2c(c1=O)C1(CCCC1)Cc1ccccc1-2` [compound 28], in series [1], the activity at 50 µM is 107 ± 4%.

Take “4-(allyloxy)-2-(ethylthio)-9-methoxy-5,5-dimethyl-5,6-dihydrobenzo[h]quinazoline [20c]”: the “MLM t1/2” value in series [2] stood at 8.3 min.

`C=CCn1c([S+]([O-])CC)nc2c(c1=O)C(C)(C)Cc1ccc(OC)cc1-2` (stereo not drawn) [compound 14, 3-allyl-2-(ethylsulfinyl)-9-methoxy-5,5-dimethyl-5,6-dihydrobenzo[h]quinazolin-4(3H)-one] showed a half-life at 1 μM in series [2] of 2.8 min. In addition, in series [1], the activity at 50 µM was 101 ± 5%.

In the case of “3-Allyl-2-(ethylthio)-8-isopropoxy-5,5-dimethyl-5,6-dihydrobenzo[h]quinazolin-4(3H)-one [17f]”, the IC50 in series [4] (setting [8]) is 4.1 ± 0.7 µM. Further, in series [6], the “Aq. Sol.” value came to 14.5 ± 3.5 µM.

For “3-Allyl-2-(allylthio)-8-methoxy-5,5-dimethyl-5,6-dihydrobenzo[h]quinazolin-4(3H)-one [12k]”, the “MLM t1/2” value in series [2] turned out to be 0.6 min. Besides, the “S. aureus biofilm inhibition” value in series [3] was “potent S. aureus biofilm inhibitors”. In series [4] (setting [8]), the 50% inhibitory concentration (IC50) worked out at 6.9 ± 0.3 µM. Also, in series [6], the “Aq. Sol.” value worked out at 14.5 ± 3.5 µM.

With `C=CCn1c(SCC)nc2c(c1=O)C(C)(C)Cc1ccccc1-2` [compound 30], in series [1], the activity at 50 µM stood at 89 ± 5%.

Turning to `C=CCn1c(SC)nc2c(c1=O)C1(CCCCC1)Cc1ccccc1-2` [6f, 3-allyl-2-(methylthio)-3H-spiro[benzo[h]quinazoline-5,1′-cyclohexan]-4(6H)-one], the activity at 50 µM in series [1] was 98 ± 3%.

`C=CCn1c(S(=O)(=O)CC)nc2c(c1=O)C(C)(C)Cc1ccc(OC)cc1-2` [compound 15, 3-allyl-2-(ethylsulfonyl)-9-methoxy-5,5-dimethyl-5,6-dihydrobenzo[h]quinazolin-4(3H)-one] had a half-life at 1 μM in series [2] of 3.8 min. In series [1], the activity at 50 µM was determined as 103 ± 3%.

For “2-(ethylthio)-9-methoxy-5,5-dimethyl-4-(2,2,2-trifluoroethoxy)-5,6-dihydrobenzo[h]quinazoline [20b]”, in series [2], the “MLM t1/2” value stood at 45.5 min.

With `C=CCn1c(OCC)nc2c(c1=O)C(C)(C)Cc1ccccc1-2` [13a, 3-allyl-2-ethoxy-5,5-dimethyl-5,6-dihydrobenzo[h]quinazolin-4(3H)-one], in series [1], the activity at 50 µM was 50 ± 23%.

Usually half-life stands for how long it takes for the measured level to halve. What is called IC50 is the concentration that gives 50% inhibition. Broadly, the solubility is how much of the substance goes into solution per volume.
